# What was measured:
# Format in all cases: in vivo
# Human Panelists [1] = assay: Sweet flavor enhancement, human panelists, scaling test; conditions: 0 to 15 scale, n = 30
# Description: Test samples containing experimental compounds were compared to a dose-response curve for perceived sweetness intensity of sweeteners (sucralose, sucrose, fructose and other sweeteners) concentrations to determine equivalent sweetness intensity.
# A group of eight or more panelists tasted solutions including sweeteners at various concentrations, as well as the experimental compound both with and without added sweetener. Panelists then rated sweetness intensity of all samples on a structured horizontal line scale, anchored from 0 to 15, where 0 equals no sweetness and 15 equals equivalent sweetness to a 15% sucrose sample. Scores for sweetness intensity were averaged across panelists. Then using the average scores and/or equation of the line for the sweetener dose-response curve, equivalent sweetness concentrations were determined for the samples containing experimental compounds.
# Subjects had been previously familiarized with the key attribute taste and were trained to use the 0 to 15 point line scale. Subjects refrained from eating or drinking (except water) for at least 1 hour prior to the test. Subjects ate a cracker and rinsed with water several times to clean the mouth.
# Sweetener solutions are provided at a wide range of concentrations such as 100 ppm, 200 ppm, 300 ppm, 400 ppm, and 500 ppm for sucralose, or between 0% and 12% for sucrose or fructose, in order to create a dose-response curve. Samples containing experimental compound were prepared both alone and in a 100 ppm sucralose solution or a 6% sucrose or fructose solution. All samples were made up in low sodium buffer pH 7.1. In order to aid dispersion, solutions can be made up in 0.1% ethanol.
# The solutions were dispensed in 20 ml volumes into 1 oz. sample cups and served to the subjects at room temperature. All samples were presented in randomized counterbalanced order to reduce response bias. Further, two sessions of testing may be used to check panel precision.
# Subjects tasted each sample individually and rate sweetness intensity on the line scale prior to tasting the next sample. All samples were expectorated. Subjects may retaste the samples but can only use the volume of sample given. Subjects must rinse with water between samples. Eating an unsalted cracker between samples may be required depending on the samples tasted.
# The scores for each sample were averaged across subjects and standard error was calculated. The dose-response curve was plotted graphically, and this may be used to ensure the panel is rating accurately; i.e., increasing the concentration of sucralose should correspond to increased average scores for sweetness. […]
# Human Panelists [2] = assay: Sweet flavor enhancement, human panelists, paired comparison test
# Protocol: (§1) Test samples containing experimental compounds are presented in pairs to the panelist and they are asked to determine which of the sample is sweeter. A group of 10-16 or more panelists participated in each test. Subjects refrained from eating or drinking (except water) for at least 1 hour prior to the test. Subjects rinsed with water several times to clean the mouth.
# All samples are prepared with ethanol to ensure dispersion of the compound in solution. This includes samples without compound; all solutions are balanced for 0.1% ethanol.
# Samples are also prepared with low sodium buffer (pH 7.1) in place of water. Buffer contains 0.952 g of KCl, 5.444 g of Na2HPO4, and 0.952 g of KH2PO4 in 40 L of DIUF water. Sample volumes are usually 20 ml.
# (§2) In one paired comparison test, the panelist is presented with two different samples and asked to identify the sample which is sweeter. The samples within a paired comparison test are presented in a randomized, counterbalanced order. Panelists have up to a 1 minute delay between taste tests to clear the mouth of any tastes.
# (§3) Binomial probability tables are used to determine the probability of the correct number of responses occurring for each test at alpha=0.05
# Human Panelists [3] = assay: Paired comparison test with Compound D5 in product prototype (drinks)
# Protocol: as §1, §2, §3
# Human panelists evaluated various drinks (e.g., tea, coffee, Kool-Aid) in paired comparison taste test procedure.
structure (smiles),measurement,setting,value
OC[C@H]1O[C@@](CO)(O[C@H]2O[C@H](CO)[C@@H](O)[C@H](O)[C@H]2O)[C@@H](O)[C@@H]1O [Sucrose],Average Sweetness,Human Panelists [1]; 6% Sucrose,6.6
same,Average Sweetness,Human Panelists [1]; 8% Sucrose,8.1
same,Average Sweetness,Human Panelists [1]; 10% Sucrose,9.8
same,Average Sweetness,Human Panelists [1]; 12% Sucrose,11.0
same,"Sample selected as sweeter by panelists, Total","Human Panelists [2]; 1% Sucrose vs LSB + 27.8 μM Compound D5, n = 45",43
same,"Sample selected as sweeter by panelists, Total","Human Panelists [2]; 1% Sucrose vs LSB + 27.8 μM Compound Y5, n = 45",44
same,"Sample selected as sweeter by panelists, Total","Human Panelists [2]; 1% Sucrose vs LSB + 111.3 μM Compound D5, n = 29",21
same,"Sample selected as sweeter by panelists, Total","Human Panelists [2]; 10% Sucrose vs 6% Sucrose + 24.9 μM Compound E5, n = 39",13
same,"Sample selected as sweeter by panelists, Total","Human Panelists [2]; 10% Sucrose vs 6% Sucrose + 26.8 μM Compound L6, n = 45",14
same,"Sample selected as sweeter by panelists, Total","Human Panelists [2]; 10% Sucrose vs 6% Sucrose + 26.9 μM Compound A6, n = 45",9
same,"Sample selected as sweeter by panelists, Total","Human Panelists [2]; 10% Sucrose vs 6% Sucrose + 26.9 μM Compound Q5, n = 48",13
same,"Sample selected as sweeter by panelists, Total","Human Panelists [2]; 10% Sucrose vs 6% Sucrose + 26.9 μM Compound R5, n = 42",16
same,"Sample selected as sweeter by panelists, Total","Human Panelists [2]; 10% Sucrose vs 6% Sucrose + 27.8 μM Compound D5, n = 45",13
same,"Sample selected as sweeter by panelists, Total","Human Panelists [2]; 10% Sucrose vs 6% Sucrose + 27.8 μM Compound Y5, n = 11 (11 panelists × 2 reps)",8
same,"Sample selected as sweeter by panelists, Total","Human Panelists [2]; 10% Sucrose vs 6% Sucrose + 27.9 μM Compound K5, n = 45",11
same,"Sample selected as sweeter by panelists, Total","Human Panelists [2]; 10% Sucrose vs 6% Sucrose + 28.9 μM Compound E6, n = 39",18
same,"Sample selected as sweeter by panelists, Total","Human Panelists [3]; 8% Sucrose Brewed Neutral Black Tea vs 4% Sucrose Brewed Neutral Black Tea + 30.6 μM Compound D5, n = 39",22
same,"Sample selected as sweeter by panelists, Total","Human Panelists [3]; 8% Sucrose Coffee Drink vs 4% Sucrose Coffee Drink + 23.65 μM Compound D5, n = 39",20
same,"Sample selected as sweeter by panelists, Total","Human Panelists [3]; 10% Sucrose Cherry Kool-Aid vs 5% Sucrose Cherry Kool-Aid + 41.7 μM Compound D5, n = 33",18
same,"Sample selected as sweeter by panelists, Total","Human Panelists [3]; 10% Sucrose Lemonade Kool-Aid vs 5% Sucrose Lemonade Kool-Aid + 41.7 μM Compound D5, n = 48",27

# Reference: patent US9834544B2, “Sweet flavor modifier” (SENOMYX, INC., priority 2011, dated 2017)
